The record followed here is EPA's ToxValDB 9.5 (doi:10.2903/j.efsa.2010.1892).

Converted amounts (≈) assume the structure as drawn.

The subject of one series is Anas platyrhynchos. The conditions noted are these: acute; oral; unspecified; mortality.
Another series deals with Folsomia candida. The following applies: acute; duration: 14 days; mortality.
A further series relates to Tagia sp. The following applies: acute; duration: 14 days; mortality.
Another series deals with Apis mellifera. The following applies: acute; duration: 48 hours; dermal; mortality.
Another series has as its system Oncorhynchus mykiss. The conditions noted are these: chronic/long-term; duration: 63 days.
The subject of another series is Canidae. The conditions noted are these: chronic; duration: 1 years; oral; Dog Other; food consumption.
In the next series the test system is Daphnia magna. The following applies: chronic/long-term; duration: 21 days; behavior.
A further series relates to Perca sp. The following applies: acute; duration: 96 hours; mortality.
In another series the test system is Bibionidae. The following applies: chronic/long-term; duration: 28 days.
The next series deals with Typhlodromus pyri. Kind of series: LR50; higher = less toxic. The following applies: not reported; mortality.
For another series, the system named is Adalia sp. Nature of the series: LR50; higher = less toxic. The conditions noted are these: not reported; mortality.
[1] abbreviates: reproduction developmental, reproduction.

Regarding `CC(C)(C)c1ccc(CCOc2ncnc3ccccc23)cc1` [Fenazaquin], the LD50 in the series with Anas platyrhynchos was more than 2000 mg/kg; in the series on Apis mellifera it was 1.21 µg/piece; with Colinus virginianus (acute, oral, mortality) it was 1750 mg/kg; in the series with Rattus norvegicus (acute, oral, M, mortality), 134 mg/kg. Further, the LC50 in the series on Folsomia candida is more than 1000 mg/kg; with Tagia sp. it was 26.5 mg/kg; with Colinus virginianus (acute, oral, diet, mortality) it was more than 1170 mg/kg-day; in the series with Perca sp., 3.2 ng/mL (≈ 0.0104 µM). The NOEC with Oncorhynchus mykiss turned out to be 0.00096 mg/L; with Daphnia magna, 0.0014 mg/L; in the series on Colinus virginianus (setting [1]), 80.3 mg/kg-day; in the series with Bibionidae, 0.0188 mg/kg. Further, the NOAEL (in general, the highest tested level that showed no adverse finding) in the series with Canidae was determined as 5 mg/kg-day; in the series with Rattus norvegicus (chronic, duration: 2 years, oral, histopathology: nonneoplastic), 0.46 mg/kg-day; in the series on Rattus norvegicus (reproduction developmental, food consumption) it was 10 mg/kg-day. Moreover, the NOEL in the series on Rattus norvegicus (setting [1]) is 25 mg/kg-day. For the same molecule, the LR50 in the series with Typhlodromus pyri was less than 2 g/ha; in the series with Adalia sp. it was less than 21.9 g/ha.
